From article PMC5601625, “Defining a therapeutic window for kinase inhibitors in leukemia to avoid neutropenia” (Oncotarget, 2017)
Entries after “also recorded” stand apart in the source; their conditions may differ.

How the values were obtained:
[1] = system: primary murine bone-marrow neutrophils; test: Live cell imaging viability of primary bone-marrow neutrophils; conditions: for effect on mouse neutrophil viability (words): G-CSF- or GM-CSF-primed, inhibitors at 1 μM, over 24 hours
Source text: Using a high-throughput live cell imaging approach reported previously [15], we examined the effect of the kinase inhibitors on the viability of bone marrow neutrophils to determine their potential to cause neutropenia (Figure 2). Because G-CSF and GM-CSF are dominant regulators of granulopoiesis and neutrophil survival, and are commonly used in a clinical setting to mobilize hematopoietic stem cells into the blood and increase neutrophil production [27–31], we treated cells with these cytokines immediately prior to drug exposure. The addition of either cytokine prevents constitutive neutrophil apoptosis thereby increasing the window for detection of changes in viability induced by drug treatments.
For all above, data represent mean ± SEM from three independent samples.
Mouse bone marrow neutrophils were prepared as described [15]. Neutrophils were resuspended in phenol red-free DMEM/10% FBS for imaging studies. The purity of neutrophil preparations was routinely 96% ± 4% (Mean ± SD, n = 50) as assessed by cytology following May-Grünwald/Giemsa staining.
Kinase inhibitors were purchased from SYN kinase (Melbourne, Australia) and were used at 1 μM, unless otherwise specified, with dilutions performed in assay buffer containing 0.1% DMSO.
Viability was monitored using 2 μg/mL PI (Sigma). Images were captured every 30-60 min by the Zeiss Axiovert 200M Microscope at 37 °C/10% CO2. Quantitative analysis was performed using a custom-scripted MetaMorph (Molecular Devices) journal suite incorporating the count nuclei function, reconstruction & subtraction functions and Integrated Morphometry Analysis to select and analyze cells of interest.

[2] = system: K562; test: Cell Titer Glo cell viability assay, 48 h; format: cell-based, human; conditions: Homo sapiens; 48 h; mean of 2 independent experiments; 0 = less than 10 nM, cell line not given; read-out: IC50 of inhibitors on cell lines, m (mean)
Experimental: (§1) The activity of the kinase inhibitor collection against a panel of human leukemia cell lines was determined in cell viability assays run over 48 h using the Cell Titer Glo reagent.
(§2) Figure 1 Effects of kinase inhibition on the proliferation of leukemia cells A. Human leukemia cell lines were treated with duplicate serial dilutions of kinase inhibitors and the effect on cell viability was determined by Cell Titer Glo assay after 48 hours. […] HL-60 cells were treated with serial dilutions of mTor/PI3K B. and MEK C. inhibitors and the effect on cell viability was determined after 48 hours. Data shown is the mean ± SEM of 3 independent experiments.
(§3) Leukemia and lymphoma cell lines were grown in RPMI containing 10% FCS. […] Cell lines are routinely tested for mycoplasma and genotyped by short tandem repeating (STR) profiling to confirm identity.
(§4) Compounds were obtained from SynMedChem and dissolved at […] in DMSO. Serial 2-fold dilutions of each compound were prepared in DMSO using a liquid handling robot (Janus, Perkin Elmer). Each dilution (100nL) was transferred to duplicate tissue culture plates containing 50 μL of media containing 5 × 10^3 cells using a 384 well pin tool. Cells were incubated for 48 h and cell viability was determined using Cell Titer Glow reagents as described by the manufacturer (Promega). Data was acquired using a luminescent plate reader (Envision, Perkin Elmer) and analysed using Activity Base (IDBS, Guilford, UK) and visualised using Spotfire (TIBCO, Palo Alto, CA) as described previously. Each cell line was assayed in independent experiments on at least two occasions. […] Serial 2-fold dilutions of each compound were prepared in media containing 0.2% DMSO and 50 μl of each dilution was added to 10^4 cells in 50 μl of media. Cells were incubated for 48 h and cell viability was determined using Cell Titer Glow assay as described above.

[3] = system: EOL-1; test: Cell Titer Glo cell viability assay, 48 h; format: cell-based, human; conditions: Homo sapiens, EOL1; 48 h; mean of 2 independent experiments; 0 = less than 10 nM, cell line not given; read-out: IC50 of inhibitors on cell lines, m (mean)
Experimental: as §1, §2, §3, §4

[4] = system: THP-1; test: Cell Titer Glo cell viability assay, 48 h; format: cell-based, human; conditions: Homo sapiens; 48 h; mean of 2 independent experiments; 0 = less than 10 nM, cell line not given; read-out: IC50 of inhibitors on cell lines, m (mean)
Experimental: as §1, §2, §3, §4

[5] = system: JURKAT; test: Cell Titer Glo cell viability assay, 48 h; format: cell-based, human; conditions: Homo sapiens; 48 h; mean of 2 independent experiments; 0 = less than 10 nM, cell line not given; read-out: IC50 of inhibitors on cell lines, m (mean)
Experimental: as §1, §2, §3, §4

[6] = system: KU-812; test: Cell Titer Glo cell viability assay, 48 h; format: cell-based, human; conditions: Homo sapiens, KU812; 48 h; mean of 2 independent experiments; 0 = less than 10 nM, cell line not given; read-out: IC50 of inhibitors on cell lines, m (mean)
Experimental: as §1, §2, §3, §4

[7] = system: HL-60; test: Cell Titer Glo cell viability assay, 48 h; format: cell-based, human; conditions: Homo sapiens; 48 h; mean of 2 independent experiments; 0 = less than 10 nM, cell line not given; read-out: IC50 of inhibitors on cell lines, m (mean)
Experimental: as §1, §2, §3, §4

[8] = system: MOLT4; test: Cell Titer Glo cell viability assay, 48 h; format: cell-based, human; conditions: Homo sapiens, MOLT-4; 48 h; mean of 2 independent experiments; 0 = less than 10 nM, cell line not given; read-out: IC50 of inhibitors on cell lines, m (mean)
Experimental: as §1, §2, §3, §4

[9] = system: U937; test: Cell Titer Glo cell viability assay, 48 h; format: cell-based, human; conditions: Homo sapiens, U-937; 48 h; mean of 2 independent experiments; 0 = less than 10 nM, cell line not given; read-out: IC50 of inhibitors on cell lines, m (mean)
Experimental: as §1, §2, §3, §4

[10] = system: OCI-AML3; test: Cell Titer Glo cell viability assay, 48 h; format: cell-based, human; conditions: Homo sapiens, OCI-AML-3; 48 h; mean of 2 independent experiments; 0 = less than 10 nM, cell line not given; read-out: IC50 of inhibitors on cell lines, m (mean)
Experimental: as §1, §2, §3, §4

[11] = system: HEL.92.1.7; test: Cell Titer Glo cell viability assay, 48 h; format: cell-based, human; conditions: Homo sapiens; 48 h; mean of 2 independent experiments; 0 = less than 10 nM, cell line not given; read-out: IC50 of inhibitors on cell lines, m (mean)
Experimental: as §1, §2, §3, §4

[12] = system: MEG-01; test: Cell Titer Glo cell viability assay, 48 h; format: cell-based, human; conditions: Homo sapiens; 48 h; mean of 2 independent experiments; 0 = less than 10 nM, cell line not given; read-out: IC50 of inhibitors on cell lines, m (mean)
Experimental: as §1, §2, §3, §4

[13] = system: MV4;11; test: Cell Titer Glo cell viability assay, 48 h; format: cell-based, human; conditions: Homo sapiens; 48 h; mean of 2 independent experiments; 0 = less than 10 nM, cell line not given; read-out: IC50 of inhibitors on cell lines, m (mean)
Experimental: as §1, §2, §3, §4

SMILES: CN(C)CC[C@H](CSc1ccccc1)Nc1ccc(S(=O)(=O)NC(=O)c2ccc(N3CCN(Cc4ccccc4-c4ccc(Cl)cc4)CC3)cc2)cc1[N+](=O)[O-] [ABT-737]
- effect on mouse neutrophil viability (words) [1]: no impact on mouse neutrophil viability; also recorded: minimal effects on neutrophils

SMILES: O=C(Nc1c[nH]nc1-c1nc2cc(CN3CCOCC3)ccc2[nH]1)NC1CC1 [AT9283]
- effect on mouse neutrophil viability (words) [1]: significantly affected neutrophil viability
- effect on mouse neutrophil viability (words) ([1]; listed as AT-9283): cytotoxicity

SMILES: Cc1cc(Nc2nc(N[C@@H](C)c3ccc(F)cc3)c(C#N)cc2F)n[nH]1 [AZ-960]
- effect on mouse neutrophil viability (words) [1]: significantly affected neutrophil viability

SMILES: Cc1cc(Nc2nc(N[C@@H](C)c3ncc(F)cn3)ncc2Cl)n[nH]1 [AZD1480]
- effect on mouse neutrophil viability (words) [1]: significantly affected neutrophil viability
- effect on mouse neutrophil viability (words) ([1]; listed as AZD-1480): cytotoxicity

SMILES: C[C@@H]1CCN(C(=O)CC#N)C[C@@H]1N(C)c1ncnc2[nH]ccc12 [CP690550]
- effect on mouse neutrophil viability (words) [1]: did not

SMILES: N#CCNC(=O)c1ccc(-c2ccnc(Nc3ccc(N4CCOCC4)cc3)n2)cc1 [CYT387]
- effect on mouse neutrophil viability (words) [1]: did not

SMILES: CN1CC[C@H](c2c(O)cc(O)c3c(=O)cc(-c4ccccc4Cl)oc23)[C@H](O)C1 [Flavopiridol]
- effect on mouse neutrophil viability (words) [1]: induced rapid cell death
- effect on mouse neutrophil viability (words) ([1]; listed as flavopiridol): significant impact on neutrophil viability

SMILES: Oc1cccc(-c2nc(N3CCOCC3)c3oc4ncccc4c3n2)c1 [PI103]
- IC50 [2]: 2290 nM
- IC50 [3]: 220 nM
- IC50 [4]: 880 nM
- IC50 [5]: 960 nM
- IC50 [6]: 3350 nM
- IC50 [7]: 290 nM
- IC50 [8]: 210 nM
- IC50 [9]: 260 nM
- IC50 [10]: 160 nM
- IC50 [11]: 1890 nM
- IC50 [12]: 1520 nM
- IC50 [13]: 200 nM
- effect on mouse neutrophil viability (words) [1]: some neutrophil toxicity

SMILES: CCc1c2c(nc3ccc(O)cc13)-c1cc3c(c(=O)n1C2)COC(=O)[C@]3(O)CC [SN-38]
- effect of chemotherapeutics on neutrophil viability ([1]; GM-CSF-primed, dose-dependent, Figure 5D): potently decreased neutrophil viability

SMILES: O=C(Nc1cccc(Cl)c1)Nc1ncc(CCNc2ncnc3ccsc23)s1 [SNS-314]
- IC50 [2]: 9110 nM
- IC50 [3]: 20 nM
- IC50 [4]: 7370 nM
- IC50 [5]: 9010 nM
- IC50 [6]: 830 nM
- IC50 [7]: 6620 nM
- IC50 [8]: 3580 nM
- IC50 [9]: 5040 nM
- IC50 [10]: > 10000 nM
- IC50 [11]: > 10000 nM
- IC50 [12]: 8150 nM
- IC50 [13]: 10 nM

SMILES: CN(C)CCOc1cc(-c2cn[nH]c2)ccc1NC(=O)C1COc2ccccc2O1 (stereo not drawn) [SR3677]
- IC50 [2]: > 10000 nM
- IC50 [3]: 750 nM
- IC50 [4]: > 10000 nM
- IC50 [5]: > 10000 nM
- IC50 [6]: 1530 nM
- IC50 [7]: 9100 nM
- IC50 [8]: > 10000 nM
- IC50 [9]: 5960 nM
- IC50 [10]: > 10000 nM
- IC50 [11]: > 10000 nM
- IC50 [12]: 8050 nM
- IC50 [13]: 2640 nM
